Experimental data reported in BindingDB's records for doi:10.1021/jm040794i (2005).

How the values were obtained:
[1] = molecular target: Somatostatin receptor type 5 (Homo sapiens, UniProt P35346); assay: In vitro inhibition of [125I][Leu8,D-Trp22,Tyr25] somatostatin 28 binding to human somatostatin receptor type 5 expressed in CHO-K1 cells; (n=3)
[2] = molecular target: Somatostatin receptor type 1 (Homo sapiens, UniProt P30872); assay: In vitro inhibition of [125I][Leu8,D-Trp22,Tyr25] somatostatin 28 binding to human somatostatin receptor type 1 expressed in CHO-K1 cells; (n=3)
Somatostatin receptor type 1, sequence (P30872 whole entry): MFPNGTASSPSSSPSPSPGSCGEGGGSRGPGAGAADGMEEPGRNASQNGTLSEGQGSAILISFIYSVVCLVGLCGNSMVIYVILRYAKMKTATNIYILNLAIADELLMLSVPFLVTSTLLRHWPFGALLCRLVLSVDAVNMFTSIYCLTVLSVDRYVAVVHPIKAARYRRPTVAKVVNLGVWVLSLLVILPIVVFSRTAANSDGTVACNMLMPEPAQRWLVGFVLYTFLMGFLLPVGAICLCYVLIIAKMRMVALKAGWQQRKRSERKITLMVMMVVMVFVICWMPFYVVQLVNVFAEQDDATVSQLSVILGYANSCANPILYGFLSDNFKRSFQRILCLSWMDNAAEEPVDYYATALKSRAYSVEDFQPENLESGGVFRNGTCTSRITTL

Somatostatin receptor type 5, sequence (P35346 whole entry): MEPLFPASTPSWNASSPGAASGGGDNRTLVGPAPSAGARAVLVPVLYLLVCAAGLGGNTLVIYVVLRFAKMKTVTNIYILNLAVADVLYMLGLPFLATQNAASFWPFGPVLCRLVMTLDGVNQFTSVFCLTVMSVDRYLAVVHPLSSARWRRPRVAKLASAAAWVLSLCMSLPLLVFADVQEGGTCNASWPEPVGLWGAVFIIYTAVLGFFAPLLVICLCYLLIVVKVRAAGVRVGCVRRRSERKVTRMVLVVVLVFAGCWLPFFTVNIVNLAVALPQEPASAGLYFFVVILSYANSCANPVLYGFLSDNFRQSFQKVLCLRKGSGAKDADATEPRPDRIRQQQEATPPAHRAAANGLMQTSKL

IC50 [1]	IC50 [2]	Structure (SMILES)
377 nM	–	C[C@@H](O)[C@H](NC(=O)[C@@H]1CSSC[C@H](NC(=O)[C@@H](Cc2ccccc2)NC(=O)CN2CCN(CC(=O)O)CCN(CC(=O)O)CCN(CC(=O)O)CC2)C(=O)N[C@@H](Cc2ccc(O)cc2)C(=O)N[C@H](Cc2c[nH]c3ccccc23)C(=O)N[C@@H](CCCCN)C(=O)N[C@@H]([C@@H](C)O)C(=O)N1)C(=O)O
–	> 10000 nM	C[C@@H](O)[C@H](NC(=O)[C@@H]1CSSC[C@H](NC(=O)[C@H](N)Cc2ccccc2)C(=O)N[C@@H](Cc2ccc(O)c(I)c2)C(=O)N[C@H](Cc2c[nH]c3ccccc23)C(=O)N[C@@H](CCCCN)C(=O)N[C@@H]([C@@H](C)O)C(=O)N1)C(=O)O [4-[(4R,7S,10S,13R,16S)-19-(2-azaniumyl-3-phenylpropanamido)-4-{[(1S)-1-carboxy-2-hydroxypropyl]carbamoyl}-16-[(4-hydroxy-3-iodophenyl)methyl]-7-(1-hydroxyethyl)-13-(1H-indol-3-ylmethyl)-6,9,12,15,18-pentaoxo-1,2-dithia-5,8,11,14,17-pentaazacycloicosan-10-yl]butan-1-aminium]
